Measurements as given in US20100105081A1, “DETECTING FUNGI IN HUMAN SAMPLES” (MAYO MEDICAL VENTURES, priority 2004, published 2010).

System: Alternaria
Test: Total Alternaria polypeptides in nasal secretions of CRS patients before and after treatment (competitive immunoassay)
Type: in vivo, human
Conditions: nasal secretion supernatants, change from baseline after treatment, N=6, paired samples
Experimental: Nasal secretions were obtained under endoscopic guidance using a sterile sinus secretion collector (Xomed Surgical Produces, Jacksonville, Fla.) from CRS patients before and after treatment with either placebo or amphotericin B. Each secretion specimen was extracted by adding twice the volume of 0.9% NaCl, vortexing, and centrifugation. The supernatants were stored at −20° C. To monitor changes in fungal antigen burden with treatment, total Alternaria polypeptides in nasal secretions were immunochemically quantitated essentially as described for latex polypeptides. Briefly, samples and a standard extract from Alternaria alternata competed with solid-phase Alternaria alternata polypeptides for rabbit anti-Alternaria IgG antibodies (ALK-Abello, Round Rock, Tex.). Radiolabeled, affinity-purified, goat anti-rabbit IgG was used for detection. The results are expressed as mass polypeptide per mL nasal secretion supernatants. The detection limit of the assay was 12 ng/mL for total Alternaria polypeptides. Sufficient quantities of mucus were not available to perform all the assays for each patient. The analyses were performed based on the availability of paired samples.

Structure (SMILES): C[C@@H]1[C@H](O)[C@@H](C)/C=C/C=C/C=C/C=C/C=C/C=C/C=C/[C@H](O[C@@H]2O[C@H](C)[C@@H](O)[C@H](N)[C@@H]2O)C[C@@H]2O[C@](O)(C[C@@H](O)C[C@@H](O)[C@H](O)CC[C@@H](O)C[C@@H](O)CC(=O)O[C@H]1C)C[C@H](O)[C@H]2C(=O)O [Amphotericin B, amphotericin B]
- Alternaria μg/mL, median change after treatment: -0.30 µg/mL
- Alternaria μg/mL, range for change after treatment: -4.64 to 3.21 µg/mL
